Earlier results as cited in US10071054B2, “Econazole composition and methods of treatment therewith” (Exeltis USA Dermatology, Inc., priority 2010, dated 2018).

Columns and labels:
[1] = Liao et al., Yao Xue Xue Bao 28 (1):22-7 (1993)
[2] = tested on: dermatophytes and yeasts; settings: most strains of Epidermophyton floccosum, Microsporum audouinii, M. canis, M. gypseum, Trichophyton mentagrophytes, T. rubrum, T. tonsurans, Candida albicans, Malassezia furfur

Compound	antifungal activity of stereoisomer [1]	activity against dermatophytes and yeasts [2]
Clc1ccc(CO[C@@H](Cn2ccnc2)c2ccc(Cl)cc2Cl)cc1 [(R)-(−)-econazole]	greater antifungal activity	
Clc1ccc(COC(Cn2ccnc2)c2ccc(Cl)cc2Cl)cc1 (centres unmarked) [Econazole nitrate]		shown activity
